Data taken from ChEMBL document CHEMBL3621146, “Design of Potent and Orally Active GPR119 Agonists for the Treatment of Type II Diabetes” (ACS Med Chem Lett, 2015).

Legend:
[1] = Half life in Wistar Han rat at 0.5 mg/kg, iv LC-MS/MS method; format: ADME, organism-based; details: Wistar Han, in vivo
[2] = target: T1, Glucose-dependent insulinotropic receptor (Mus musculus) (UniProt Q7TQP3); assay: Agonist activity at mouse GPR119 by cAMP assay relative to control; format: functional; design: concentration or dose not given beside the values
T1 sequence (whole entry): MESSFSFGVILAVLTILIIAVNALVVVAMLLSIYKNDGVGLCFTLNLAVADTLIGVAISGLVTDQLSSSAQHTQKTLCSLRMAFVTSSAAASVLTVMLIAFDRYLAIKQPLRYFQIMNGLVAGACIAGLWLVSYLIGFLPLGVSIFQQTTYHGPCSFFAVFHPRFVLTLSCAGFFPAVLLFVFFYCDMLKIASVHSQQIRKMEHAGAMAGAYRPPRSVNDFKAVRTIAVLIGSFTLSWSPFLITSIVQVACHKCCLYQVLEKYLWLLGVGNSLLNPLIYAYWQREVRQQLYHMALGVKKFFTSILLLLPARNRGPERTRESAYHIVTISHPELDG

[3] = Clearance in Wistar Han rat at 0.5 mg/kg, iv LC-MS/MS method; format: ADME, organism-based; details: in vivo
[4] = Volume of distribution in Wistar Han rat at 0.5 mg/kg, iv LC-MS/MS method; format: ADME, organism-based; details: Wistar Han, in vivo
[5] = target: T2, Glucose-dependent insulinotropic receptor (Mus musculus, UniProt Q7TQP3); assay: Agonist activity at mouse GPR119 by cAMP assay; format: functional
T2 sequence (Q7TQP3 whole entry): T1 sequence (whole entry)

Rattus norvegicus = assay: Unbound volume of distribution in Wistar Han rat at 0.5 mg/kg, iv LC-MS/MS method; format: ADME, organism-based; details: in vivo
[6] = Fraction unbound in rat plasma; format: ADME, cell-free
[7] = Intrinsic clearance in rat liver microsomes; format: ADME; details: read-out: CLH
[8] = target: T3, Glucose-dependent insulinotropic receptor (Homo sapiens) (UniProt Q8TDV5); assay: Agonist activity at human GPR119 by cAMP assay relative to control; format: functional; design: concentration or dose not given beside the values
T3 sequence (whole entry): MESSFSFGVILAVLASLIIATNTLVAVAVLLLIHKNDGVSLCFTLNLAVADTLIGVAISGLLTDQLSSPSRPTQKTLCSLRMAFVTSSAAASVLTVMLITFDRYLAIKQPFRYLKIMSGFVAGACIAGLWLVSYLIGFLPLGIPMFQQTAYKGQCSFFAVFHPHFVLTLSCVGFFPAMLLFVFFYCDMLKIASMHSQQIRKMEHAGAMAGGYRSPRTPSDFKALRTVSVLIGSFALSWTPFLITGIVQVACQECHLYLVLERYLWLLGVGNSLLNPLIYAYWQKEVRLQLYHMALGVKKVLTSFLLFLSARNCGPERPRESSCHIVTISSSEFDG

[9] = Lipophilicity, logD of the compound at pH 7 by HPLC method; format: physicochemical; details: buffer
[10] = target: T4, Glucose-dependent insulinotropic receptor (Homo sapiens, UniProt Q8TDV5); assay: Agonist activity at human GPR119 expressed in CHO cells by cAMP assay; format: functional, cell-based
T4 sequence (Q8TDV5 whole entry): T3 sequence (whole entry)

half-life [1]: 108 min | Activity [2]: 56% | clearance [3]: 9 mL/min/kg | Vd [4]: 1.3 L/kg | EC50 [5]: 3.6 nM | Vdu (Rattus norvegicus): 81 L/kg | fraction unbound [6]: 0.016 | CLint scaled [7]: 553 mL/min/kg | Activity [8]: 53% | logD [9]: 3.7 | EC50 [10]: 8.7 nM
SMILES: CS(=O)(=O)c1ccc(COC[C@@H]2C[C@@H]2C2CCN(c3ncc(Cl)cn3)CC2)nc1
